System: 935938-334-R-J1-PDC spheroids with HUVEC/MSC, viability
Assay: Anticancer human tumor 935938-334-R-J1-PDC patient-derived small intestine adenocarcinoma cell line growth inhibition [PI3K]
Conditions: for IC50: curve of first compound; for viability, T/C: stronger effect = lower value
From the text: Combinatorial screen of targeted agents with the PI3K inhibitors inavolisib, alpelisib, duvelisib, and copanlisib in multi-cell type tumor spheroids
A high-throughput screen of multi-cell type tumor spheroids was designed to identify active combinations of targeted small molecules and PI3K pathway inhibitors. Complex spheroids include a stromal component modeled by human endothelial cells (HUVEC) and fibroblasts modeled by human mesenchymal stem cells (MSCs). The concentration ranges selected for each drug and investigational agent were based upon clinically achievable concentrations if the clinical Cmax of the agent was known.
Compounds. The drugs and investigational agents: inavolisib (NSC800729), alpelisib (NSC765974), duvelisib (NSC772469), copanlisib (NSC816437), ipatasertib (NSC767898), afuresertib (NSC778305), talazoparib (NSC767125), sapanisertib (NSC764658), selumetinib (NSC741078), tovorafenib (DAY101, NSC766906), vemurafenib (NSC761431), ravoxertinib (NSC781343), sotorasib (NSC818433), MRTX1133 (NSC 836407), abemaciclib (NSC 768073), palbociclib (NSC758247), venetoclax (NSC 766270), SY5609 (NSC837396), enzalutamide (NSC755605), and darolutamide (NSC825331), were obtained from the National Cancer Institute (NCI) Developmental Therapeutics Program Chemical Repository. The FDA-approved anticancer drug set is available from the NCI Developmental Therapeutics Program. […] The stock solutions were prepared in dimethyl sulfoxide (DMSO, Sigma-Aldrich, St. Louis, MO, cat. D2650) at 800-fold the tested concentration and stored at -70 degrees C prior to their use. All drugs and investigational agents were tested over a range starting from a high concentration at or near the clinical Cmax and decreasing in half-log increments. If the clinical Cmax for an agent had not been determined, the highest concentration tested was 10 microM.
Cell Culture. All cells were maintained in an incubator at 37 degrees C and 5% CO2 with 95% humidity. The PDC lines were cultured according to standard operating procedures established by the NCI PDMR (https://pdmr.cancer.gov/sops/default.htm). All PDCs were thawed and cultured in Matrigel-coated flasks prepared with a working solution of 1X Ham's F-12 nutrient mix, without supplementation (Invitrogen, Waltham, MA, cat. 11765054), 100 U/mL penicillin-streptomycin (Invitrogen, cat. 15140122), and 2.5% Matrigel (Corning Inc., Corning, NY, cat. 354248) for the first three passages. The 354836-022-R-J1-PDC, 475296-252-R-J1-PDC, and 997726-040-R-J2-PDC lines were cultured in 6A media, which includes advanced DMEM/F-12 (Thermo Fisher Scientific, cat. 12634028), 10 mM HEPES (Thermo Fisher Scientific, cat. 15630080), 1X GlutaMAX supplement (Thermo Fisher Scientific, cat. 35050061), 0.1 mg/mL primocin (InvivoGen, San Diego, CA, cat. ant-pm-2), 10% defined fetal bovine serum, heat inactivated (HyClone Laboratories Inc., Logan, UT, cat. SH30070.03HI), 50% L-WRN conditioned media (ATCC, cat. CRL-3276), 1.25 mM N-Acetyl-L-cysteine (Sigma-Aldrich, cat. A9165), 10 mM nicotinamide (Sigma-Aldrich, cat. N0636), 1X B-27 supplement (Thermo Fisher Scientific, cat. 17504044), 1X N-2 supplement (Thermo Fisher Scientific, cat. 17502048), and 10 microM Y-27632 dihydrochloride (Tocris Bioscience, Bristol, United Kingdom, cat. 1254). The 624824-186-R-J2-PDC line was cultured in 6C/Colon 1B media, which includes all 6A media components plus 50 ng/mL human EGF recombinant protein (Thermo Fisher Scientific, cat. PHG0311). […]
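Further: compound exposure lasted seven days before viability was read.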
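Wherever viability, T/C is given: percent of vehicle DMSO treated spheroid viability so 100% = untreated.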

CNC(=O)c1ccc(N2C(=S)N(c3ccc(C#N)c(C(F)(F)F)c3)C(=O)C2(C)C)cc1F + CC(Nc1ccc2c(c1)OCCn1cc(N3C(=O)OCC3C(F)F)nc1-2)C(N)=O
IC50 (second compound 0.00316 µM): > 10000 nM
IC50 (second compound 0.01 µM): > 10000 nM
IC50 (second compound 0.0316 µM): > 10000 nM
IC50 (second compound 0.1 µM): > 10000 nM
IC50 (second compound 0.316 µM): > 10000 nM
IC50 (second compound 1 µM): 3160 nM
viability, T/C (second compound 0.00316 µM, first compound 0.0316 µM): 99.4%
viability, T/C (second compound 0.00316 µM, first compound 0.1 µM): 108%
viability, T/C (second compound 0.00316 µM, first compound 0.316 µM): 99.5%
viability, T/C (second compound 0.00316 µM, first compound 1 µM): 102%
viability, T/C (second compound 0.00316 µM, first compound 3.16 µM): 97.1%
viability, T/C (second compound 0.00316 µM, first compound 10 µM): 86%
viability, T/C (second compound 0.01 µM, first compound 0.0316 µM): 99.9%
viability, T/C (second compound 0.01 µM, first compound 0.1 µM): 89.9%
viability, T/C (second compound 0.01 µM, first compound 0.316 µM): 108%
viability, T/C (second compound 0.01 µM, first compound 1 µM): 78.3%
viability, T/C (second compound 0.01 µM, first compound 3.16 µM): 102%
viability, T/C (second compound 0.01 µM, first compound 10 µM): 97.6%
viability, T/C (second compound 0.0316 µM, first compound 0.0316 µM): 102%
viability, T/C (second compound 0.0316 µM, first compound 0.1 µM): 95.6%
viability, T/C (second compound 0.0316 µM, first compound 0.316 µM): 90.7%
viability, T/C (second compound 0.0316 µM, first compound 1 µM): 110%
viability, T/C (second compound 0.0316 µM, first compound 3.16 µM): 97.8%
viability, T/C (second compound 0.0316 µM, first compound 10 µM): 86.3%
viability, T/C (second compound 0.1 µM, first compound 0.0316 µM): 80.4%
viability, T/C (second compound 0.1 µM, first compound 0.1 µM): 99.4%
viability, T/C (second compound 0.1 µM, first compound 0.316 µM): 90.3%
viability, T/C (second compound 0.1 µM, first compound 1 µM): 93.8%
viability, T/C (second compound 0.1 µM, first compound 3.16 µM): 79.2%
viability, T/C (second compound 0.1 µM, first compound 10 µM): 105%
viability, T/C (second compound 0.316 µM, first compound 0.0316 µM): 86.9%
viability, T/C (second compound 0.316 µM, first compound 0.1 µM): 72.7%
viability, T/C (second compound 0.316 µM, first compound 0.316 µM): 73.7%
viability, T/C (second compound 0.316 µM, first compound 1 µM): 83.1%
viability, T/C (second compound 0.316 µM, first compound 3.16 µM): 82.4%
viability, T/C (second compound 0.316 µM, first compound 10 µM): 64.7%
viability, T/C (second compound 1 µM, first compound 0.0316 µM): 61.6%
viability, T/C (second compound 1 µM, first compound 0.1 µM): 66.5%
viability, T/C (second compound 1 µM, first compound 0.316 µM): 72.7%
viability, T/C (second compound 1 µM, first compound 1 µM): 43.7%
viability, T/C (second compound 1 µM, first compound 3.16 µM): 61.5%
viability, T/C (second compound 1 µM, first compound 10 µM): 53.3%

Cn1cnc2c(F)c(Nc3ccc(Br)cc3Cl)c(C(=O)NOCCO)cc21 + CC(Nc1ccc2c(c1)OCCn1cc(N3C(=O)OCC3C(F)F)nc1-2)C(N)=O
IC50 (second compound 0.00316 µM): 49.6 nM
IC50 (second compound 0.01 µM): 29.9 nM
IC50 (second compound 0.0316 µM): 65.4 nM
IC50 (second compound 0.1 µM): 27.4 nM
IC50 (second compound 0.316 µM): 18.3 nM
IC50 (second compound 1 µM): < 9.49 nM
viability, T/C (second compound 0.00316 µM, first compound 0.00949 µM): 86.3%
viability, T/C (second compound 0.00316 µM, first compound 0.03 µM): 57.2%
viability, T/C (second compound 0.00316 µM, first compound 0.0949 µM): 39.2%
viability, T/C (second compound 0.00316 µM, first compound 0.3 µM): 30.1%
viability, T/C (second compound 0.00316 µM, first compound 0.949 µM): 20.9%
viability, T/C (second compound 0.00316 µM, first compound 3 µM): 16.8%
viability, T/C (second compound 0.01 µM, first compound 0.00949 µM): 71.2%
viability, T/C (second compound 0.01 µM, first compound 0.03 µM): 50.9%
viability, T/C (second compound 0.01 µM, first compound 0.0949 µM): 33.8%
viability, T/C (second compound 0.01 µM, first compound 0.3 µM): 26.5%
viability, T/C (second compound 0.01 µM, first compound 0.949 µM): 26.5%
viability, T/C (second compound 0.01 µM, first compound 3 µM): 17.9%
viability, T/C (second compound 0.0316 µM, first compound 0.00949 µM): 79.1%
viability, T/C (second compound 0.0316 µM, first compound 0.03 µM): 65.3%
viability, T/C (second compound 0.0316 µM, first compound 0.0949 µM): 38.8%
viability, T/C (second compound 0.0316 µM, first compound 0.3 µM): 34.3%
viability, T/C (second compound 0.0316 µM, first compound 0.949 µM): 23.8%
viability, T/C (second compound 0.0316 µM, first compound 3 µM): 15.8%
viability, T/C (second compound 0.1 µM, first compound 0.00949 µM): 58%
viability, T/C (second compound 0.1 µM, first compound 0.03 µM): 46.4%
viability, T/C (second compound 0.1 µM, first compound 0.0949 µM): 39.7%
viability, T/C (second compound 0.1 µM, first compound 0.3 µM): 23.1%
viability, T/C (second compound 0.1 µM, first compound 0.949 µM): 16.8%
viability, T/C (second compound 0.1 µM, first compound 3 µM): 18.3%
viability, T/C (second compound 0.316 µM, first compound 0.00949 µM): 56.4%
viability, T/C (second compound 0.316 µM, first compound 0.03 µM): 45.3%
viability, T/C (second compound 0.316 µM, first compound 0.0949 µM): 22.7%
viability, T/C (second compound 0.316 µM, first compound 0.3 µM): 19%
viability, T/C (second compound 0.316 µM, first compound 0.949 µM): 16.8%
viability, T/C (second compound 0.316 µM, first compound 3 µM): 12.7%
viability, T/C (second compound 1 µM, first compound 0.00949 µM): 44.3%
viability, T/C (second compound 1 µM, first compound 0.03 µM): 31.3%
viability, T/C (second compound 1 µM, first compound 0.0949 µM): 20.7%
viability, T/C (second compound 1 µM, first compound 0.3 µM): 17.4%
viability, T/C (second compound 1 µM, first compound 0.949 µM): 17.4%
viability, T/C (second compound 1 µM, first compound 3 µM): 12%

— PubChem BioAssay AID1963966 (Molecular Pharmacology Branch, DTP, NCI, 2024)
